Earlier results on one substance are cited in patent US4127517A, “Novel docosapeptides, intermediates therefore and pharmaceutical compositions and methods employing said docosapeptides” (priority 1977, dated 1978).

The subject of data set [1] is brain opiate receptor sites.
The conditions of data set [2]: injected directly into the brain of the rat.

“H-Tyr-Gly-Gly-Phe-Met-OH [methionine enkephalin]”: in data set [1], the “binding to partially purified brain opiate receptor sites” value is listed as “binds stereo-specifically”. Also, in data set [2], the analgesic activity result was “weak analgesic agent of short duration”.
